Active and inactive are the calls of the source. The rule behind the calls is not given here.
Assays:
[1] = target: P2Y purinoceptor 12 (Rattus norvegicus) (UniProt Q9EPX4); assay: Antagonist activity at P2Y12 receptor in platelet-rich plasma of male Sprague-Dawley rat assessed as inhibition of VASP phosphorylation at Ser239 at 30 uM pretreated for 10 mins followed by PGE1/ADP addition measured after 10 mins by ELISA relative to control; type: cell-free; settings: time 20.0 min
Rattus norvegicus [2] = assay: Anti-platelet aggregation in Sprague-Dawley rat assessed as inhibition of ADP-induced platelet aggregation at 10 mg/kg, po measured for 15 mins in presence of 10 uM ADP by cell counter analysis relative to control; type: functional; settings: 0.25 h
Plasma [3] = assay: Anti-platelet aggregation in platelet-rich plasma of male male Sprague-Dawley rat assessed as inhibition of ADP-induced platelet aggregation preincubated for 15 mins followed by ADP addition measured up to 10 mins by Born's turbidometric method; type: functional, cell-free
Rattus norvegicus [4] = assay: Neuroprotective activity in MCAO-induced brain damage Sprague-Dawley rat model assessed as reduction in brain water content at 10 mg/kg, iv administered immediately after arterial occlusion measured after 24 hrs; type: functional, organism-based
P2Y purinoceptor 1 = P2Y purinoceptor 1 (Rattus norvegicus, UniProt P49651); assay: Antagonist activity at P2Y1 receptor in platelet-rich plasma of rat assessed as inhibition of ADP-induced cytosolic Ca2+ level pretreated for 5 mins followed by ADP addition by FLUO-4 AM dye based analysis; type: functional, cell-free
Plasma [5] = assay: Anti-platelet aggregation in platelet-rich plasma of male human assessed as inhibition of ADP-induced platelet aggregation preincubated for 15 mins followed by ADP addition measured up to 10 mins by Born's turbidometric method; type: functional, cell-free
Plasma [6] = assay: Anti-platelet aggregation in platelet-rich plasma of male Japanese white rabbit assessed as inhibition of ADP-induced platelet aggregation preincubated for 15 mins followed by ADP addition measured up to 10 mins by Born's turbidometric method; type: functional, cell-free; settings: Oryctolagus cuniculus
Oryctolagus cuniculus = species on record: Oryctolagus cuniculus; assay: Antagonist activity at P2Y12 receptor in platelet-rich plasma of male Japanese white rabbit assessed as inhibition of VASP phosphorylation at Ser239 at 30 uM pretreated for 10 mins followed by PGE1/ADP addition measured after 10 mins by ELISA relative to control; type: cell-free; settings: time 20.0 min
[7] = Antagonist activity at P2Y1 receptor in platelet-rich plasma of male Japanese white rabbit assessed as inhibition of ADP-induced cytosolic Ca2+ level pretreated for 5 mins followed by ADP addition by FLUO-4 AM dye based analysis; type: cell-free; settings: Oryctolagus cuniculus
HT-22 = assay: Neuroprotective activity against H2O2-induced oxidative stress in mouse HT-22 cells assessed as cell viability at 10 uM preincubated for 2 hrs followed by H2O2 addition measured after 24 hrs by MTT assay (reference value: 55 +/- 4.6 %); type: functional; settings: for viability at 10 µM: time 26 hrs, read-out: Activity; for Activity: time 26.0 hrs
Rattus norvegicus [8] = assay: Anti-platelet aggregation in Sprague-Dawley rat assessed as inhibition of ADP-induced platelet aggregation at 10 mg/kg, po measured for 15 mins in presence of 5 uM ADP by cell counter analysis relative to control; type: functional; settings: 0.25 h
Rattus norvegicus [9] = assay: Anti-platelet aggregation in Sprague-Dawley rat assessed as inhibition of ADP-induced platelet aggregation at 10 mg/kg, po measured for 15 mins in presence of 2.5 uM ADP by cell counter analysis relative to control; type: functional; settings: 0.25 h
Rattus norvegicus [10] = assay: Neuroprotective activity in MCAO-induced brain damage Sprague-Dawley rat model assessed as plasma MDA level at 10 mg/kg, iv administered immediately after arterial occlusion measured after 24 hrs (reference value: 51.7 %); type: functional
Rattus norvegicus [11] = assay: Neuroprotective activity in MCAO-induced brain damage Sprague-Dawley rat model assessed as plasma GSH-px level at 10 mg/kg, iv administered immediately after arterial occlusion measured after 24 hrs; type: functional
Rattus norvegicus [12] = assay: Neuroprotective activity in MCAO-induced brain damage Sprague-Dawley rat model assessed as reduction in brain infarction size at 10 mg/kg, iv administered immediately after arterial occlusion measured after 24 hrs by TTC staining based analysis relative to control; type: functional; set-up: scale not given: the % may be the effect or the level left
Rattus norvegicus [13] = assay: Neuroprotective activity in MCAO-induced brain damage Sprague-Dawley rat model assessed as plasma GSH-px level at 6 mg/kg, iv administered immediately after arterial occlusion measured after 24 hrs; type: functional
Rattus norvegicus [14] = assay: Anti-platelet aggregation in Sprague-Dawley rat assessed as inhibition of ADP-induced platelet aggregation at 6 mg/kg, po measured for 15 mins in presence of 5 uM ADP by cell counter analysis relative to control; type: functional; settings: 0.25 h
Rattus norvegicus [15] = assay: Neuroprotective activity in MCAO-induced brain damage Sprague-Dawley rat model assessed as reduction in brain water content at 6 mg/kg, iv administered immediately after arterial occlusion measured after 24 hrs; type: functional, organism-based
Rattus norvegicus [16] = assay: Anti-platelet aggregation in Sprague-Dawley rat assessed as inhibition of ADP-induced platelet aggregation at 6 mg/kg, po measured for 15 mins in presence of 2.5 uM ADP by cell counter analysis relative to control; type: functional; settings: 0.25 h
[17] = Antioxidant activity assessed as inhibition of DPPH radical scavenging activity incubated for 30 mins under dark condition by absorbance based method; type: functional
Rattus norvegicus [18] = assay: Neuroprotective activity in MCAO-induced brain damage Sprague-Dawley rat model assessed as plasma MDA level at 6 mg/kg, iv administered immediately after arterial occlusion measured after 24 hrs (reference value: 51.7 %); type: functional
Rattus norvegicus [19] = assay: Anti-platelet aggregation in Sprague-Dawley rat assessed as inhibition of ADP-induced platelet aggregation at 6 mg/kg, po measured for 15 mins in presence of 10 uM ADP by cell counter analysis relative to control; type: functional; settings: 0.25 h
Rattus norvegicus [20] = assay: Neuroprotective activity in MCAO-induced brain damage Sprague-Dawley rat model assessed as reduction in brain infarction size at 6 mg/kg, iv administered immediately after arterial occlusion measured after 24 hrs by TTC staining based analysis relative to control; type: functional; set-up: scale not given: the % may be the effect or the level left
[21] = Antagonist activity at P2Y12 receptor in platelet-rich plasma of male Japanese white rabbit assessed as inhibition of VASP phosphorylation at Ser239 pretreated for 10 mins followed by PGE1/ADP addition measured after 10 mins by ELISA; type: cell-free; settings: Oryctolagus cuniculus
P2Y purinoceptor 12 = P2Y purinoceptor 12 (Rattus norvegicus, UniProt Q9EPX4); assay: Antagonist activity at P2Y12 receptor in platelet-rich plasma of male Sprague-Dawley rat assessed as inhibition of VASP phosphorylation at Ser239 pretreated for 10 mins followed by PGE1/ADP addition measured after 10 mins by ELISA; type: cell-free
Chain of P2Y purinoceptor 12 (Q9EPX4 whole entry): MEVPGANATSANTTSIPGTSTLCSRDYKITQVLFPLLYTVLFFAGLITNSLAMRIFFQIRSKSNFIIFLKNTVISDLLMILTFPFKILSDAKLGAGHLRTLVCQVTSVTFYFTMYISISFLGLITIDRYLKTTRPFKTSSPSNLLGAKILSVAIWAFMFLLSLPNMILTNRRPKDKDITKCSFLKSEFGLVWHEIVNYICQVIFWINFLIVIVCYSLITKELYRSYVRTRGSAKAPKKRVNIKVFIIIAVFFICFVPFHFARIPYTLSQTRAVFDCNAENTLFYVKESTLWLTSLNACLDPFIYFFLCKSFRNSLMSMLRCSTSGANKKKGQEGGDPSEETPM

Chain of P2Y purinoceptor 12 (Rattus norvegicus) (Q9EPX4 whole entry): as above
Chain of P2Y purinoceptor 1 (P49651 whole entry): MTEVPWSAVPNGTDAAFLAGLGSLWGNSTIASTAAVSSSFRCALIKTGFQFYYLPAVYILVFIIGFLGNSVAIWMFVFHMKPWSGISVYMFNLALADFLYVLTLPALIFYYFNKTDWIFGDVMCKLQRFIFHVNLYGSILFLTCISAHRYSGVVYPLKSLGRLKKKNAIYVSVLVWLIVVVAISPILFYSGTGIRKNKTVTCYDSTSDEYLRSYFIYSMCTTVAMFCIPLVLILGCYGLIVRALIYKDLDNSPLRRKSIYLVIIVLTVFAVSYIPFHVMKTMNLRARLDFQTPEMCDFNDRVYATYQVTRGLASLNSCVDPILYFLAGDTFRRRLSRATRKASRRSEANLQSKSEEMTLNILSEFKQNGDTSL

Row | Compound | IC50 (Plasma [6]) [µM] | viability at 10 µM (HT-22) [%] | Activity (HT-22) | other results
1 | Cc1nc(-c2cccc(C#N)c2)n(OCc2ccc(C#N)cc2)c1C(=O)O | 3.5 | 81.3 |  | inhibition ([1]; filed as antagonist): 40.8%; inhibition in vivo at 10 mg/kg (Rattus norvegicus [2]): 19.1%; IC50 (Plasma [3]): 3.84 µM; Activity (Rattus norvegicus [4]): Active; Water Content Did Not Return To Blank Level; IC50 (P2Y purinoceptor 1): 2.95 µM; IC50 (Plasma [5]): 4.24 µM; inhibition (Oryctolagus cuniculus): 27.9%; IC50 [7]: 4.07 µM; inhibition in vivo at 10 mg/kg (Rattus norvegicus [8]): 35.1%; inhibition in vivo at 10 mg/kg (Rattus norvegicus [9]): 34.9%; Activity (Rattus norvegicus [10]): 48.8%; Activity (Rattus norvegicus [11]): 677.6 U/ml; Activity (Rattus norvegicus [12]): 33.6%
2 | CC1=NN(c2ccccc2)C(=O)C1 [EDARAVONE] |  |  |  | Activity (Rattus norvegicus [13]): 579.3 U/ml; inhibition in vivo at 6 mg/kg (Rattus norvegicus [14]): 48.5%; Activity (Rattus norvegicus [15]): Active; Water Content Did Not Return To Blank Level; inhibition in vivo at 6 mg/kg (Rattus norvegicus [16]): 55.4%; IC50 [17]: 23.6 µM; Activity (Rattus norvegicus [18]): 31%; inhibition in vivo at 6 mg/kg (Rattus norvegicus [19]): 29.4%; Activity (Rattus norvegicus [20]): 35.7%
3 | CC(C)(C)c1ccccc1Oc1ncccc1NC(=O)Nc1ccc(OC(F)(F)F)cc1 | 4.42 | 82.6 |  | inhibition [1]: 37.6%; inhibition in vivo at 10 mg/kg (Rattus norvegicus [2]): 34.4%; IC50 (Plasma [3]): 3.31 µM; Activity (Rattus norvegicus [4]): Active; Water Content Did Not Return To Blank Level; IC50 (P2Y purinoceptor 1): 2.66 µM; IC50 (Plasma [5]): 3.4 µM; inhibition (Oryctolagus cuniculus): 30.3%; IC50 [7]: 2.5 µM; inhibition in vivo at 10 mg/kg (Rattus norvegicus [8]): 64.6%; inhibition in vivo at 10 mg/kg (Rattus norvegicus [9]): 65.9%; Activity (Rattus norvegicus [10]): 44.1%; Activity (Rattus norvegicus [11]): 489.1 U/ml
4 | CCCSc1nc(N[C@@H]2C[C@H]2c2ccc(F)c(F)c2)c2nnn([C@@H]3C[C@H](OCCO)[C@@H](O)[C@H]3O)c2n1 [TICAGRELOR] | 0.5 | 76 |  | inhibition in vivo at 10 mg/kg (Rattus norvegicus [2]): 77.7%; IC50 (Plasma [3]): 0.56 µM; IC50 (Plasma [5]): 0.69 µM; inhibition in vivo at 10 mg/kg (Rattus norvegicus [8]): 73.7%; IC50 [21]: 2.89 µM; IC50 (P2Y purinoceptor 12): 2.11 µM; inhibition in vivo at 10 mg/kg (Rattus norvegicus [9]): 71.8%
5 | N#Cc1cccc(-c2ncc(C(=O)O)c(Nc3cccnc3)n2)c1 | > 10 |  | inactive | 
6 | N#Cc1cccc(-c2nc(C(F)F)c(C(=O)O)n2OCc2cnco2)c1 | 2.18 |  | inactive | 
7 | Cc1sc(N2CCOCC2)nc1COn1c(-c2cccc(C#N)c2)nc(C(F)F)c1C(=O)O | 1.36 | 64.6 |  | 
8 | N#Cc1ccc(-c2ncc(C(=O)O)c(Nc3cccc(C#N)c3)n2)cc1 | > 10 | 97.2 |  | 
9 | N#Cc1ccc(COn2c(-c3cccc(C#N)c3)nc(-c3ccccc3)c2C(=O)O)cc1 | 3.33 |  | inactive | 
10 | N#Cc1cccc(COc2nc(-c3cccc(C#N)c3)ncc2C(=O)O)c1 | 2.67 | 80.7 |  | 
11 | N#Cc1ccc(COn2c(-c3cccc(C#N)c3)nc(-c3ccsc3)c2C(=O)O)cc1 | 1.39 |  | inactive | 
12 | N#Cc1ccc(COn2c(-c3cccc(C#N)c3)nc(-c3cscn3)c2C(=O)O)cc1 | > 10 |  | inactive | 
13 | N#Cc1ccc(COn2c(-c3cccc(C#N)c3)nc(C3CCC3)c2C(=O)O)cc1 | 1.43 |  | inactive | 
14 | N#Cc1ccc(COn2c(-c3cccc(C#N)c3)nc(C3CC(F)(F)C3)c2C(=O)O)cc1 | 3.11 |  | inactive | 
15 | N#Cc1ccc(COn2c(-c3cccc(C#N)c3)nc(C3CC3(F)F)c2C(=O)O)cc1 (stereo not drawn) | 2.88 | 60.1 |  | 
16 | N#Cc1ccc(COn2c(-c3cccc(C#N)c3)nc(C3CCCC3)c2C(=O)O)cc1 | 2.53 |  | inactive | 
17 | CN(C)c1nc(COn2c(-c3cccc(C#N)c3)nc(C(F)F)c2C(=O)O)cs1 | 3.71 | 62.4 |  | 
18 | N#Cc1ccc(-c2ncc(C(=O)O)c(OCc3cccc(C#N)c3)n2)cc1 | 3.01 | 81.1 |  | 

Row | Compound | IC50 (Plasma [6]) [µM] | viability at 10 µM (HT-22) [%] | Activity (HT-22) | other results
19 | N#Cc1cccc(-c2ncc(C(=O)O)c(Oc3ccn[nH]3)n2)c1 | > 10 |  | inactive | 
20 | N#Cc1ccc(COn2c(-c3cccc(C#N)c3)nc(C3CC3)c2C(=O)O)cc1 | 2.51 |  | inactive | 
21 | [2H]C([2H])([2H])c1nc(-c2cccc(C#N)c2)n(OCc2ccc(C#N)cc2)c1C(=O)O | 3.43 | 73.1 |  | 
22 | N#Cc1ccc(COn2c(-c3cccc(C#N)c3)nc(-c3ccco3)c2C(=O)O)cc1 | > 10 | 77.1 |  | 
23 | N#Cc1cccc(-c2nc(C(F)F)c(C(=O)O)n2OCc2cscn2)c1 | 1.98 | 86.8 |  | 
24 | N#Cc1ccc(-c2ncc(C(=O)O)c(Oc3ccccc3C#N)n2)cc1 | 5.68 | 96.2 |  | 
25 | N#Cc1cccc(-c2ncc(C(=O)O)c(Nc3ccccc3C#N)n2)c1 | > 10 | 81 |  | 
26 | N#Cc1ccc(COn2c(-c3cccc(C#N)c3)nc(-c3ccccn3)c2C(=O)O)cc1 | 9.2 |  | inactive | 
27 | CCN(CC)c1nc(COn2c(-c3cccc(C#N)c3)nc(C(F)F)c2C(=O)O)cs1 | 2.71 |  | inactive | 
28 | CC1(c2nc(-c3cccc(C#N)c3)n(OCc3ccc(C#N)cc3)c2C(=O)O)CC1 | 2.41 | 88.1 |  | 
29 | N#Cc1ccc(COn2c(-c3cccc(C#N)c3)nc(C(F)F)c2C(=O)O)cc1 | 0.98 | 77.4 |  | 
30 | N#Cc1ccc(-c2ncc(C(=O)O)c(Nc3ccccc3C#N)n2)cc1 | 9.74 | 97.8 |  | 
31 | N#Cc1cccc(-c2nc(C(F)F)c(C(=O)O)n2OCc2cncs2)c1 | 3.77 | 64.9 |  | 
32 | N#Cc1ccc(COn2c(-c3cccc(C#N)c3)nc(-c3cccs3)c2C(=O)O)cc1 | > 10 |  | inactive | 
33 | N#Cc1cccc(-c2nc(C(F)F)c(C(=O)O)n2OCc2cccnc2)c1 | > 10 |  | inactive | 
34 | N#Cc1cccc(-c2ncc(C(=O)O)c(Oc3cccnc3)n2)c1 | > 10 | 87.6 |  | 
35 | CC(C)c1nc(-c2cccc(C#N)c2)n(OCc2ccc(C#N)cc2)c1C(=O)O | 1.62 |  | inactive | 

Reference: ChEMBL document CHEMBL6182910, “Design, Synthesis, and Biological Evaluation of 4-(Difluoromethyl)-1H-imidazole-5-carboxylic Acids/4-(3-Cyanophenoxy)pyrimidine-5-carboxylic Acids as P2Y1 Receptor Antagonists for Ischemic Stroke Treatment” (J Med Chem, 2025)
